Data from paper PMC7974150, “Backbone assignment of E. coli NfsB and the effects of addition of the cofactor analogue nicotinic acid” (Biomolecular Nmr Assignments, 2021).

Biological target: T1, E. coli nitroreductase NfsB (also called NfnB) (Escherichia coli, UniProt P38489)
T1 sequence (P38489 2-217): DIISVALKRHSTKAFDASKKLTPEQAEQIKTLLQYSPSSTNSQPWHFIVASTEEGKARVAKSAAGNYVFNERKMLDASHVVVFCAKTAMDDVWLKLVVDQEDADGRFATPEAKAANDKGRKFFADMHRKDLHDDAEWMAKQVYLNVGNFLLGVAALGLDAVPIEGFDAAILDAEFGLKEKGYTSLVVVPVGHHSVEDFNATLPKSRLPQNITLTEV
Test: 1D 1H NMR titration, ligand proton shifts fitted to hyperbola
Assay type: binding
Conditions: read-out: Apparent Kd
Text: 1D 1H NMR titration, ligand proton shifts fitted to hyperbola on E. coli nitroreductase NfsB (also called NfnB)

O=C(O)c1cccnc1 [nicotinate]
Kd: 1.9 ± 0.3 mM
